Measurements: patent US20190345138A1, “HETEROCYCLIC AMIDES AS KINASE INHIBITORS” (GlaxoSmithKline Intellectual Property Development Limited, priority 2016, published 2019)
Values joined by “and” are separate entries in the source; they are usually repeats but may differ in a detail not shown here. Equal values may be shown once.

Columns and labels:
RIP1 kinase = target: T1, RIP1 kinase (Homo sapiens, UniProt Q13546); test: fluorescent polarization based binding assay; details: mean of a minimum of 2 experiments
T1 sequence (Q13546 1-375 limits assumed): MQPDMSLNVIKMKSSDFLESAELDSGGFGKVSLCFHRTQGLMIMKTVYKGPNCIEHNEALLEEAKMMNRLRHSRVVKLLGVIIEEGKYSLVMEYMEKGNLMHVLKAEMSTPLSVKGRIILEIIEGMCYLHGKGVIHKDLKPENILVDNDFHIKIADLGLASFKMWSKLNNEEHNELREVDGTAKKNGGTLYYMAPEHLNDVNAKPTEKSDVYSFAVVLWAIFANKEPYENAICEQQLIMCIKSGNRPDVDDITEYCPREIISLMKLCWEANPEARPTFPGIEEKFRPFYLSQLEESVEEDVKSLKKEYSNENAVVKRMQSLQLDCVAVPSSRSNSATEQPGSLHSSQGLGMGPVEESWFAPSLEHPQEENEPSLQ
Excerpt: A fluorescent polarization based binding assay was used to assess the activity of the compounds of this invention, the details of which are disclosed in International Patent Appln. No. PCT/IB2014/059004, now, International Patent Appln. Pub.

[1] = system: human monocytic leukemia U937 cells; test: necroptosis assay in U937 cells; assay type: cell-based; details: Homo sapiens, U-937, U937 cells; viability by cellular ATP (Cell Titer-Glo); read-out: pIC50, inhibited necrosis in U937 cells (converted)
Method: The efficacy of RIP1 inhibitors can be tested […] in vitro using a human monocytic leukemia U937 or mouse L929 fibrosarcoma cells in a necroptosis assay. As determined using the method described in S. He et al., Cell, 137(6):1100-1111 (2009) and International Patent Appln. No. PCT/IB2014/059004, now, International Patent Appln. Pub.
Viability was measured by quantitating cellular levels of ATP using the Cell Titer-Glo kit. All data are means±standard deviation of the mean.

SMILES | IC50 (RIP1 kinase) | IC50 [1]
O=C(C1CCN(c2nnc(-c3ccccc3)o2)CC1)N1N=CC[C@H]1c1ccccc1 [Example 57, (S)-(1-(5-phenyl-1,3,4-oxadiazol-2-yl)piperidin-4-yl)(5-phenyl-4,5-dihydro-1H-pyrazol-1-yl)methanone] | 1 to 31.6 nM | 1 to 100 nM
CCOc1ccnc(N2CCC(C(=O)N3N=CC[C@H]3c3ccccc3)CC2)n1 [Example 58, (S)-(1-(4-ethoxypyrimidin-2-yl)piperidin-4-yl)(5-phenyl-4,5-dihydro-1H-pyrazol-1-yl)methanone] | 1 to 31.6 nM and 1 to 10 nM | 1 to 100 nM
CSc1cc(N2CCC(C(=O)N3N=CC[C@H]3c3ccccc3)CC2)ncn1 [Example 59, (S)-(1-(6-(methylthio)pyrimidin-4-yl)piperidin-4-yl)(5-phenyl-4,5-dihydro-1H-pyrazol-1-yl)methanone] | 1 to 31.6 nM and 1 to 10 nM | 1 to 100 nM
CSc1nc(N)cc(N2CCC(C(=O)N3N=CC[C@H]3c3ccccc3)CC2)n1 [Example 60, (S)-(1-(6-amino-2-(methylthio)pyrimidin-4-yl)piperidin-4-yl)(5-phenyl-4,5-dihydro-1H-pyrazol-1-yl)methanone] | 1 to 31.6 nM | 1 to 100 nM
Nc1ncnc(N2CCC(C(=O)N3N=CC[C@H]3c3ccccc3)CC2)c1F [Example 61, (S)-(1-(6-amino-5-fluoropyrimidin-4-yl)piperidin-4-yl)(5-phenyl-4,5-dihydro-1H-pyrazol-1-yl)methanone] | 1 to 31.6 nM and 1 to 10 nM | 1 to 100 nM
CC(=O)Nc1cncc(N2CCC(C(=O)N3N=CC[C@H]3c3ccccc3)CC2)n1 [Example 64, (S)-N-(6-(4-(5-phenyl-4,5-dihydro-1H-pyrazole-1-carbonyl)piperidin-1-yl)pyrazin-2-yl)acetamide] | 1 to 31.6 nM and 1 to 10 nM | 1 to 100 nM
O=C(C1CCN(c2ncc(-c3ccccc3)o2)CC1)N1N=CC[C@H]1c1ccccc1 [Example 67, (S)-(5-phenyl-4,5-dihydro-1H-pyrazol-1-yl)(1-(5-phenyloxazol-2-yl)piperidin-4-yl)methanone] | 1 to 31.6 nM | 1 to 100 nM
N#Cc1cccc([C@@H]2CC=NN2C(=O)C2CCN(c3cc(C#N)ncn3)CC2)c1 [Example 68, (S)-6-(4-(5-(3-cyanophenyl)-4,5-dihydro-1H-pyrazole-1-carbonyl)piperidin-1-yl)pyrimidine-4-carbonitrile] | 1 to 31.6 nM | 1 to 100 nM
COc1ccnc(N2CCC(C(=O)N3N=CC[C@H]3c3cccc(C#N)c3)CC2)n1 [Example 69, (S)-3-(1-(1-(4-methoxypyrimidin-2-yl)piperidine-4-carbonyl)-4,5-dihydro-1H-pyrazol-5-yl)benzonitrile] | 1 to 31.6 nM and 1 to 10 nM | 1 to 100 nM
N#Cc1cccc([C@@H]2CC=NN2C(=O)C2CCN(c3cc(C(N)=O)ncn3)CC2)c1 [Example 70, (S)-6-(4-(5-(3-cyanophenyl)-4,5-dihydro-1H-pyrazole-1-carbonyl)piperidin-1-yl)pyrimidine-4-carboxamide] | 1 to 31.6 nM | 1 to 100 nM
N#Cc1cccc([C@@H]2CC=NN2C(=O)C2CCN(c3ncc(F)c(N)n3)CC2)c1 [Example 72, (S)-3-(1-(1-(4-amino-5-fluoropyrimidin-2-yl)piperidine-4-carbonyl)-4,5-dihydro-1H-pyrazol-5-yl)benzonitrile] | 1 to 31.6 nM | 1 to 100 nM
N#Cc1cccc([C@@H]2CC=NN2C(=O)C2CCN(c3ccc4nccn4n3)CC2)c1 [Example 73, (S)-3-(1-(1-(imidazo[1,2-b]pyridazin-6-yl)piperidine-4-carbonyl)-4,5-dihydro-1H-pyrazol-5-yl)benzonitrile] | 1 to 31.6 nM | 1 to 100 nM
N#Cc1cccc([C@@H]2CC=NN2C(=O)C2CCN(c3ccnc(C#N)n3)CC2)c1 [Example 74, (S)-4-(4-(5-(3-cyanophenyl)-4,5-dihydro-1H-pyrazole-1-carbonyl)piperidin-1-yl)pyrimidine-2-carbonitrile] | 1 to 31.6 nM | 1 to 100 nM
N#Cc1cccc([C@@H]2CC=NN2C(=O)C2CCN(c3ncc4cn[nH]c4n3)CC2)c1 [Example 76, (S)-3-(1-(1-(1H-pyrazolo[3,4-d]pyrimidin-6-yl)piperidine-4-carbonyl)-4,5-dihydro-1H-pyrazol-5-yl)benzonitrile] | 1 to 31.6 nM | 1 to 100 nM
COc1ccnc(N2CCC(C(=O)N3N=CC[C@H]3c3cc(F)cc(F)c3)CC2)n1 [Example 79, (S)-(5-(3,5-difluorophenyl)-4,5-dihydro-1H-pyrazol-1-yl)(1-(4-methoxypyrimidin-2-yl)piperidin-4-yl)methanone] | 1 to 31.6 nM and 1 to 10 nM | 1 to 100 nM
O=C1Cc2cnc(N3CCC(C(=O)N4N=CC[C@H]4c4cc(F)cc(F)c4)CC3)nc2N1 [Example 80, (S)-2-(4-(5-(3,5-difluorophenyl)-4,5-dihydro-1H-pyrazole-1-carbonyl)piperidin-1-yl)-5H-pyrrolo[2,3-d]pyrimidin-6(7H)-one] | 1 to 31.6 nM and 1 to 10 nM | 1 to 100 nM
CSc1nccc(N2CCC(C(=O)N3N=CC[C@H]3c3cc(F)cc(F)c3)CC2)n1 [Example 82, (S)-(5-(3,5-difluorophenyl)-4,5-dihydro-1H-pyrazol-1-yl)(1-(2-(methylthio)pyrimidin-4-yl)piperidin-4-yl)methanone] | 1 to 31.6 nM and 1 to 10 nM | 1 to 100 nM
Nc1nccc(N2CCC(C(=O)N3N=CC[C@H]3c3cc(F)cc(F)c3)CC2)n1 [Example 84, (S)-(1-(2-aminopyrimidin-4-yl)piperidin-4-yl)(5-(3,5-difluorophenyl)-4,5-dihydro-1H-pyrazol-1-yl)methanone] | 1 to 31.6 nM | 1 to 100 nM
O=C(C1CCN(c2ccc3nccn3n2)CC1)N1N=CC[C@H]1c1cc(F)cc(F)c1 [Example 87, (S)-(5-(3,5-difluorophenyl)-4,5-dihydro-1H-pyrazol-1-yl)(1-(imidazo[1,2-b]pyridazin-6-yl)piperidin-4-yl)methanone] | 1 to 31.6 nM and 1 to 10 nM | 1 to 100 nM
N#Cc1cncnc1N1CCC(C(=O)N2N=CC[C@H]2c2cc(F)cc(F)c2)CC1 [Example 88, (S)-4-(4-(5-(3,5-difluorophenyl)-4,5-dihydro-1H-pyrazole-1-carbonyl)piperidin-1-yl)pyrimidine-5-carbonitrile] | 1 to 31.6 nM | 1 to 100 nM
COc1cc(N2CCC(C(=O)N3N=CC[C@H]3c3cc(F)cc(F)c3)CC2)ncn1 [Example 91, (S)-(5-(3,5-difluorophenyl)-4,5-dihydro-1H-pyrazol-1-yl)(1-(6-methoxypyrimidin-4-yl)piperidin-4-yl)methanone] | 1 to 31.6 nM and 1 to 10 nM | 1 to 100 nM
N#Cc1cnc(N2CCC(C(=O)N3N=CC[C@H]3c3cc(F)cc(F)c3)CC2)nc1 [Example 92, (S)-2-(4-(5-(3,5-difluorophenyl)-4,5-dihydro-1H-pyrazole-1-carbonyl)piperidin-1-yl)pyrimidine-5-carbonitrile] | 1 to 31.6 nM and 1 to 10 nM | 1 to 100 nM
Nc1ccnc(N2CCC(C(=O)N3N=CC[C@H]3c3cc(F)cc(F)c3)CC2)n1 [Example 93, (S)-(1-(4-aminopyrimidin-2-yl)piperidin-4-yl)(5-(3,5-difluorophenyl)-4,5-dihydro-1H-pyrazol-1-yl)methanone] | 1 to 31.6 nM | 1 to 100 nM
NC(=O)c1cnc(N2CCC(C(=O)N3N=CC[C@H]3c3cc(F)cc(F)c3)CC2)nc1 [Example 96, (S)-2-(4-(5-(3,5-difluorophenyl)-4,5-dihydro-1H-pyrazole-1-carbonyl)piperidin-1-yl)pyrimidine-5-carboxamide] | 1 to 31.6 nM | 1 to 100 nM
O=C(C1CCN(c2nccc(=O)[nH]2)CC1)N1N=CC[C@H]1c1cc(F)cc(F)c1 [Example 97, (S)-2-(4-(5-(3,5-difluorophenyl)-4,5-dihydro-1H-pyrazole-1-carbonyl)piperidin-1-yl)pyrimidin-4(3H)-one] | 1 to 31.6 nM | 1 to 100 nM
Nc1cc(N2CCC(C(=O)N3N=CC[C@H]3c3cc(F)cc(F)c3)CC2)ncn1 [Example 98, (S)-(1-(6-aminopyrimidin-4-yl)piperidin-4-yl)(5-(3,5-difluorophenyl)-4,5-dihydro-1H-pyrazol-1-yl)methanone] | 1 to 31.6 nM and 1 to 10 nM | 1 to 100 nM
COc1nccc(N2CCC(C(=O)N3N=CC[C@H]3c3cc(F)cc(F)c3)CC2)n1 [Example 99, (S)-(5-(3,5-difluorophenyl)-4,5-dihydro-1H-pyrazol-1-yl)(1-(2-methoxypyrimidin-4-yl)piperidin-4-yl)methanone] | 1 to 31.6 nM and 1 to 10 nM | 1 to 100 nM
CNc1nccc(N2CCC(C(=O)N3N=CC[C@H]3c3cc(F)cc(F)c3)CC2)n1 [Example 100, (S)-(5-(3,5-difluorophenyl)-4,5-dihydro-1H-pyrazol-1-yl)(1-(2-(methylamino)pyrimidin-4-yl)piperidin-4-yl)methanone] | 1 to 31.6 nM | 1 to 100 nM
COc1cnc(N2CCC(C(=O)N3N=CC[C@H]3c3cc(F)ccc3F)CC2)nc1 [Example 101, (S)-(5-(2,5-difluorophenyl)-4,5-dihydro-1H-pyrazol-1-yl)(1-(5-methoxypyrimidin-2-yl)piperidin-4-yl)methanone] | 1 to 31.6 nM and 1 to 10 nM | 1 to 100 nM
